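Test compounds were applied to cells in 96-well plates for 48 hours at 5 doses. GI50 marks 50% less growth.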 Calls of active or inactive are those of the source. No stated cut-off is given here; in the data, active = GI50 up to about 1.1 µM and inactive = higher.
Legend:
Test in all cases: NCI anticancer screen, dose series, 48 h
[1] = system: CCRF-CEM
[2] = system: EKVX
[3] = system: OVCAR-5
[4] = system: ACHN
[5] = system: IGROV-1
[6] = system: A498
[7] = system: SNB-75
[8] = system: SR
[9] = system: LOX IMVI
[10] = system: U-251
[11] = system: Hs-578T
[12] = system: UACC-257
[13] = system: SK-MEL-28
[14] = system: NCI-H226
[15] = system: COLO 205
[16] = system: T47D
[17] = system: SF-268
[18] = system: MOLT-4
[19] = system: SN12C
[20] = system: SK-OV-3

Measured: GI50

C(=N\c1ccc(-c2nc3ccccc3[nH]2)cc1)/c1cccs1
inactive: [1] 22 µM | [2] > 100 µM | [3] > 100 µM | [4] > 100 µM | [5] 19.8 µM | [6] > 100 µM | [7] 81.1 µM | [8] 45.3 µM | [9] > 100 µM | [10] 89.7 µM | [11] > 100 µM | [12] > 100 µM | [13] > 100 µM | [14] > 100 µM | [15] 97.5 µM | [16] 31.9 µM | [17] > 100 µM | [18] 29.9 µM | [19] > 100 µM | [20] > 100 µM

NS(=O)(=O)c1ccc(/N=N/c2cc3ccccc3c(C(=O)O)c2O)cc1
inactive: [1] 78 µM | [2] > 100 µM | [3] > 54.3 µM | [4] 15.7 µM | [5] 41.6 µM | [6] > 53.6 µM | [7] > 60.7 µM | [8] 2.31 µM | [9] > 54.5 µM | [10] > 39.9 µM | [11] > 67.3 µM | [12] > 58.2 µM | [13] > 60.1 µM | [14] > 100 µM | [15] > 58.6 µM | [16] > 54.1 µM | [17] > 52.1 µM | [18] > 57 µM | [19] > 78.3 µM | [20] > 66.4 µM

CC(N)(Cc1c[nH]c2ccccc12)C(=O)O (stereo not given)
inactive: [1] > 100 µM | [2] > 100 µM | [3] > 100 µM | [4] > 100 µM | [5] > 100 µM | [6] > 100 µM | [7] > 100 µM | [8] > 100 µM | [9] > 100 µM | [10] > 100 µM | [11] > 100 µM | [12] > 100 µM | [13] > 100 µM | [14] > 100 µM | [15] > 100 µM | [16] > 100 µM | [17] > 100 µM | [18] > 100 µM | [19] > 100 µM | [20] > 100 µM

O=C1NC(=O)C(c2c[nH]c3cc(Br)ccc23)=C1c1cn(C(c2ccccc2)(c2ccccc2)c2ccccc2)cn1
inactive: [1] 5.45 µM | [2] 7.82 µM | [3] 17.5 µM | [4] 20.2 µM | [5] 12 µM | [6] 16.8 µM | [7] 11.5 µM | [8] 6.64 µM | [9] 15.1 µM | [10] 10.7 µM | [11] 22.4 µM | [12] 18.5 µM | [13] 27.2 µM | [14] 3.38 µM | [15] 12.3 µM | [16] 15.2 µM | [17] 13.8 µM | [18] 4.41 µM | [19] 15.5 µM | [20] 28.6 µM
